In patent US8710252B2, “Hepodxilin analog enantiomers” (priority 2006, dated 2014):

Key:
washed human platelets = assay: I-BOP evoked human platelet aggregation in vitro with washed platelets; assay type: cell-based; details: washed human platelets, 5 ng I-BOP; compounds are methyl esters; read-out: IC50, inhibition of I-BOP evoked human platelet aggregation
Procedure: Washed human platelets were prepared as previously described (Pace-Asciak et al., 2002). The aggregation of platelets was carried out in a conventional 4-well aggregometer with stirring of the suspension maintained at 37° C. The platelet suspension was caused to aggregate with a thromboxane stable analog, I-BOP. The isolated enantiomer compounds and their respective racemates, PBT-3 and PBT-4, were added at various concentrations to cuvettes containing 375×10^6 platelets/ml, 1 min prior to the addition of 5 ng I-BOP (Cayman Chemicals, Ann Arbor, Mich.). Aggregation was monitored for an additional 5 min.

[1] = test system: human leukemic K562 cells; assay: Inhibition of 3H-methyl thymidine incorporation (cell proliferation) in K562 cells; assay type: cell-based; details: 6 h treatment; compounds are methyl esters
Procedure: The human leukemic K562 cell line was established as previously reported (Qiao et al., 2003). Cells were maintained as suspension cultures in RPMI 1640 medium supplemented with 100 1.1/ml penicillin G, 100 μg/ml streptomycin, 10% (v/v) […] in a humidified atmosphere of 5% CO2 at 37° C. Cell viability was assessed by the exclusion of Trypan blue. Incorporation of ^3H-methyl thymidine into cell DNA was used as an assay for cell proliferation. Cells ([…]) were starved for 12 h, and were subsequently treated with the test compounds. Compounds A, B, C and D were made up at various concentrations in DMSO ([…] A, B, C and D. Concentrations were doubled for racemates PBT-3 and PBT-4) and 1 of these solutions was added/ml volume of cells. Cells were suspended in RPMI 1640 medium. At 6 h post-treatment at 37° C. the cells were fixed and denatured essentially as described in Qiao et al. (2003), harvested and passed through Whatman GF/C glass filters. The filters were washed and counted for radioactivity.

[2] = test system: Caspase-3 cleavage in K562 cells; assay: Caspase-3 cleavage in K562 cells, Western blot; assay type: cell-based, human; details: 10 uM, 6 h, FIG. 7
Procedure: Cell culture: Human leukemia K562 cells, obtained from ATCC (American Type Culture Collection), were maintained in RPMI 1640 medium containing 100 units/ml penicillin G, 100 μg/ml streptomycin, 10% (v/v) fetal calf serum in a humidified atmosphere with 5% CO2 at 37° C. The ability of the cells to exclude trypan Blue dye was used to assess cell viability.
Cell treatment: K562 cells were stored in 0.5% FBS for 15 min before the experiment. The cells, 6×10^5, were treated with DMSO as vehicle, or with PBT-3, PBT-4, or compounds A, B, C and D at 10 uM/dish (8 ml). Gleevec™ (STI) was used at 5 μM/dish. All experiments were without FBS and treatment lasted 6 h at 37° C. Treatment was terminated by washing the cells with ice-cold PBS buffer by centrifugation at 500×g for 5 min. Cells were lysed in buffer containing 20 mM Tris-HCl buffer, pH 7.4, 150 NaCl, 1 mM EDTA, 1 mM EGTA, 1% Triton X-100 2.5 mM sodium pyrophosphate, 1 mM beta-glycerophosphate, 1 mM sodium orthovanadate, 1 mM PMSF and 1 μM leupeptin/1 μM Aprotinin/1 μM pepstain A, on ice for 30 min. The lysates were clarified by centrifugation at 15,000×g for 15 min at 4° C. Lysates were subjected to protein assay (BCA, Pierce) and kept at −80° C.
Western blot: Thirty micrograms of protein from each sample were taken, and SDS-PAGE sample loading buffer was added. The mixture was boiled for 5 min. After centrifugation, the samples were loaded onto 15% SDS-PAGE gel and the gel was run (BioRad Protein II) for 2-3 h at 20 mA. The protein was transferred to a Trans-blot Nitrocellulose membrane (Millipore). Protein bands on the membranes were checked visually with Ponceau S-staining to ensure equivalent protein load/transfer comparing different samples. Membranes were blocked with 5% non-fat dry milk in PBS containing 0.5% Tween-20 for 1 h at room temperature, and then incubated with 1:1000 dilution of anti-caspase-3 antibody (BD Transduction Laboratories, Mississauga, Canada) overnight at 4° C. Secondary antibody of horseradish peroxidase anti-mouse antibody was used at 1:2000 dilution. Bound antibodies were detected by using enhanced chemilluminescence (ECL kit, Amersham Pharmacia Biotech) and the membranes were exposed to Hyper film for ECL detection. The same membrane was stripped by placing in buffer containing 62.5 mM Tris-HCl, pH 6.8/2% SDS/100 mM beta-mercaptoethanol at 50° C. for 30 min. The membrane was washed 3 times with PBS containing 0.5% Tween-20. The membrane was blocked by PBS buffer containing 0.5% Tween-20 and 5% skim milk. The anti-tubulin antibody (Santa Cruz, Calif.) was diluted 1:1000 and membrane analyzed by ECL as described above.

[3] = molecular target: T1, Ga14-DBD-PPAR gamma-LBD fusion protein (Homo sapiens, UniProt P37231); assay: PPAR gamma transactivation assay (Gal4-PPAR gamma LBD / UASx4-TK-luc reporter); assay type: cell-based
T1 construct: expressed in transfected cells; host or cells: mouse embryonic fibroblasts (MEFs) or ME3 cells
T1 sequence (P37231 238-503 limits assumed): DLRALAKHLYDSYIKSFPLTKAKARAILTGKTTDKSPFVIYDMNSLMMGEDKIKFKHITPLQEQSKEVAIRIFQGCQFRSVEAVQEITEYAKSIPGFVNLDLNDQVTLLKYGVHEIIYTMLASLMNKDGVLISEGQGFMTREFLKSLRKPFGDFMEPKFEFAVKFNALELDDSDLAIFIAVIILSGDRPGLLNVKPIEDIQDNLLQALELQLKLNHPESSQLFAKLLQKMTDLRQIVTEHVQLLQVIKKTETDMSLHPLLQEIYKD
From the text: The UASx4-TK-luc reporter construct (where UAS refers to “upstream activator sequence”) contains four Ga14-responsive elements. The plasmid Ga14-PPAR gammaLBD encodes a Ga14-DBD-PPAR gamma-LBD fusion protein (i.e. the DNA-binding domain, DBD, of Ga14 fused to the ligand-binding domain, LBD, of PPAR gamma) capable of transactivating the UASx4-TK-luc reporter plasmid by binding to the UAS. The CMV-beta-galactosidase plasmid (where CMV is cytomegalovirus) was used for normalization of experimental values.
The cells were replated, typically in 24 well plates, so that at the time of transfection the cells were 50-70% confluent.
Briefly, per well in a 24 well plate, UASx4TKIuc (0.2 microg) Ga14-PPAR gammaLBD (or pM-hPPAR gamma-LBD; 0.1 microg) and CMV-beta-galactosidase (0.05 microg) in 30 μL DMEM (free of serum and antibiotics) was mixed with 30 microL DMEM (free of serum and antibiotics) containing 1 microL metafectenein. The mixture was incubated at room temperature for 20 min to allow formation of nucleic acid-lipid complexes and then approximately 60 micros was added to each well containing the 50-70% confluent cells. […] Cells were harvested after 12-24 hours and luciferase and beta-galactosidase activities were measured according to standard protocols.
Each experiment was carried out with triplicate samples with 0.1, 1 or 10 microM racemate or purified enantiomer.

Row | Compound | IC50 (washed human platelets) [nM] | IC50 [1] [nM] | Cleavage of caspase-3 [2] | PPAR Activation as % of positive control (Avandia) ([3]; 10 microM racemate, Table 3) | PPAR Activation as % of positive control (Avandia) ([3]; Experiment 1, 0.1 microM) | PPAR Activation as % of positive control (Avandia) ([3]; Experiment 1, 1 microM) | PPAR Activation as % of positive control (Avandia) ([3]; Experiment 1, 10 microM) | PPAR Activation as % of positive control (Avandia) ([3]; Experiment 2, 0.1 microM) | PPAR Activation as % of positive control (Avandia) ([3]; Experiment 2, 1 microM) | PPAR Activation as % of positive control (Avandia) ([3]; Experiment 2, 10 microM) | PPAR Activation as % of positive control (Avandia) ([3]; Experiment 3, 0.1 microM) | PPAR Activation as % of positive control (Avandia) ([3]; Experiment 3, 1 microM) | PPAR Activation as % of positive control (Avandia) ([3]; Experiment 3, 10 microM)
1 | CCCCC/C=C\CC1CC1C(O)/C=C\C/C=C\CCCC(=O)OC (centres unmarked) [PBT-3, 10-hydroxy-11,12-cyclopropyl-eicosa-5Z,8Z,14Z-trienoic acid methyl ester, reference compound] | 54 ± 9 | 4600 | increased cleavage of caspase-3 | 18 +/− 1 % of positive control (Avandia) | 11 +/− 2 % of positive control (Avandia) | 15 +/− 2 % of positive control (Avandia) | 42 +/− 8 % of positive control (Avandia) | 4 +/− 1 % of positive control (Avandia) | 8 +/− 1 % of positive control (Avandia) | 41 +/− 5 % of positive control (Avandia) | 8 +/− 2 % of positive control (Avandia) | 18 +/− 4 % of positive control (Avandia) | 32 +/− 4 % of positive control (Avandia)
2 | CCCCC/C=C\CC1CC1C(O)/C=C\C/C=C\CCCC(=O)OC (centres unmarked) [PBT-4, 10-hydroxy-11,12-cyclopropyl-eicosa-5Z,8Z,14Z-trienoic acid methyl ester, reference compound] | 79 ± 17 | 4900 | increased cleavage of caspase-3 | 19 +/− 1 % of positive control (Avandia) | 13 +/− 2 % of positive control (Avandia) | 13 +/− 3 % of positive control (Avandia) | 60 +/− 9 % of positive control (Avandia) | 4 +/− 1 % of positive control (Avandia) | 7 +/− 1 % of positive control (Avandia) | 32 +/− 1 % of positive control (Avandia) | 7 +/− 1 % of positive control (Avandia) | 15 +/− 7 % of positive control (Avandia) | 33 +/− 8 % of positive control (Avandia)
